Assays:
[1] = Selectivity index, ratio of CC50 for cytotoxicity against HEK293T cells to IC50 of antiviral activity against HIV1; format: toxicity, cell-based; conditions: human, read-out: Ratio CC50/IC50
[2] = target: Human immunodeficiency virus type 1 protease (Human immunodeficiency virus 1, UniProt Q72874); assay: Inhibition of wild type HIV1 protease using Arg-Glu (EDANS)-Ser-Gln-Asn-Tyr-Pro-Ile-Val-Gln-Lys(DABCYL)-Arg as substrate preincubated for 20 to 30 mins followed by substrate addition and measured for 10 mins by FRET assay
[3] = system: Human immunodeficiency virus 1; assay: Antiviral activity against HIV1; format: functional, organism-based
[4] = Cytotoxicity against HEK293T cells assessed as reduction in cell viability incubated for 24 hrs by CCK8 assay; format: cell-based, HEK-293T; conditions: human
[5] = system: Human immunodeficiency virus 1; assay: (§1) Antiviral activity against HIV1 Env-deficient VSV-G pseudotyped virus infected in human SUP-T1 cells infected with supernatant of compound treated virus-producing 293T cells assessed as inhibition of late stage viral production at 10 uM treated for 48 hrs with virus-producing 293T cells followed by SUP-T1 cells infection for 48 hrs by single-round infection luciferase assay relative to control; format: functional; conditions: Human immunodeficiency virus 1, SUP-T1, time 96 hrs
[6] = system: Human immunodeficiency virus 1; assay: Antiviral activity against HIV1 subtype C isolate 11929; format: functional, organism-based; conditions: Human immunodeficiency virus 1, subtype C isolate 11929
[7] = system: Human immunodeficiency virus 1; assay: Antiviral activity against HIV1 NL4-3 infected in human MT4 cells assessed as reduction in viral replication by measuring reduction in p24 Gag production by chemiluminescent-EIA; format: functional, organism-based; conditions: Human immunodeficiency virus 1, NL4-3, MT4
[8] = system: Human immunodeficiency virus 1; assay: Antiviral activity against HIV1 subtype C isolate 11928; format: functional, organism-based
[9] = system: Human immunodeficiency virus 1; assay: Antiviral activity against HIV1 subtype C isolate 11941; format: functional, organism-based
[10] = system: Human immunodeficiency virus 1; assay: Antiviral activity against HIV1 subtype C isolate-plndie; format: functional, organism-based; conditions: Human immunodeficiency virus 1, subtype C isolate-plndie
[11] = system: Human immunodeficiency virus 1; assay: as §1, with “100 nM” for “10 uM”; format: functional; conditions: Human immunodeficiency virus 1, SUP-T1, time 96 hrs
[12] = system: Human immunodeficiency virus 1; assay: Antiviral activity against DRV resistant HIV1 infected in human MT4 cells assessed as reduction in viral replication by measuring reduction in p24 Gag production by chemiluminescent-EIA; format: functional, organism-based; conditions: Human immunodeficiency virus 1, MT4
[13] = system: Human immunodeficiency virus 1; assay: Antiviral activity against HIV1 (NL4-3) Env-deficient VSV-G pseudotyped virus infected in human SUP-T1 cells assessed as inhibition of early stage viral production at 10 uM measured after 48 hrs by luciferase assay relative to control; format: functional; conditions: Human immunodeficiency virus 1, NL4-3, SUP-T1
[14] = target: Human immunodeficiency virus type 1 protease (Human immunodeficiency virus 1) (UniProt Q72874); assay: Potency index, ratio of DRV Ki to test compound Ki for inhibition of wild type HIV1 protease using Arg-Glu (EDANS)-Ser-Gln-Asn-Tyr-Pro-Ile-Val-Gln-Lys(DABCYL)-Arg as substrate preincubated for 20 to 30 mins followed by substrate addition and measured for 10 mins by FRET assay; conditions: time 30-40 min
[15] = Resistance index, ratio of IC50 for DRV resistant HIV1 infected in human MT4 cells to IC50 for HIV1 NL4-3 infected in human MT4 cells; format: functional

With `COc1ccc(S(=O)(=O)N(CC(C)C)C[C@@H](O)[C@H](Cc2ccccc2)NC(=O)C2CCNCC2)cc1` the selectivity ratio [1] was > 40800, the Ki [2] was 0.55 nM and the IC50 [3] was 2.45 nM. For the same compound, the CC50 at 24 h [4] was > 100000 nM.

For `COc1ccc(S(=O)(=O)N(CC(C)C)C[C@@H](O)[C@H](Cc2ccccc2)NC(=O)OC[C@@H]2CCCNC2)cc1`, the selectivity ratio [1] was > 233000, the Ki [2] was 0.1 nM and the IC50 [3] was 0.43 nM. The inhibition at 10 µM [5] was 94% and the CC50 at 24 h [4] was > 100000 nM.

In the case of `CC(C)CN(C[C@@H](O)[C@H](Cc1ccccc1)NC(=O)OC[C@@H]1CCCNC1)S(=O)(=O)c1ccc(C(F)(F)F)cc1`, the selectivity ratio [1] is reported as > 13000, the Ki [2] is reported as 1.73 nM and the IC50 [3] is reported as 7.71 nM. The CC50 at 24 h [4] was > 100000 nM.

In the case of `CC(C)CN(C[C@@H](O)[C@H](Cc1ccccc1)NC(=O)[C@@H]1CCCN(C)C1)S(=O)(=O)c1ccc(C(F)(F)F)cc1`, the selectivity ratio [1] is reported as > 119000, the Ki [2] is reported as 0.19 nM and the IC50 [3] is reported as 0.84 nM. For the same compound, the inhibition at 10 µM [5] was 88% and the CC50 at 24 h [4] was > 100000 nM.

`CC(C)CN(C[C@@H](O)[C@H](Cc1ccccc1)NC(=O)O[C@H]1CO[C@H]2OCC[C@H]21)S(=O)(=O)c1ccc(N)cc1` showed an EC50 [6] of 3630 nM, an EC50 [7] of 3.9 nM and an EC50 [8] of 2010 nM. For the same compound, the EC50 [9] was 910 nM, the CC50 at 24 h [4] was > 100000 nM and the EC50 [10] was 1260 nM. For the same compound, the inhibition at 0.1 µM [11] was 100% and the EC50 [12] was 240 nM.

In the case of `COc1ccc(S(=O)(=O)N(CC(C)C)C[C@@H](O)[C@H](Cc2ccccc2)NC(=O)[C@@H]2CCCCN2)cc1`, the selectivity ratio [1] is reported as > 68500, the Ki [2] is reported as 0.33 nM and the IC50 [3] is reported as 1.46 nM. For the same compound, the inhibition at 10 µM [5] was 79% and the CC50 at 24 h [4] was > 100000 nM.

In the case of `COc1ccc(S(=O)(=O)N(CC(C)C)C[C@@H](O)[C@H](Cc2ccccc2)NC(=O)OC[C@H]2CCCNC2)cc1`, the selectivity ratio [1] is reported as > 74100, the Ki [2] is reported as 0.3 nM and the IC50 [3] is reported as 1.35 nM. The CC50 at 24 h [4] was > 100000 nM.

`CC(C)CN(C[C@@H](O)[C@H](Cc1ccccc1)NC(=O)C1CCNCC1)S(=O)(=O)c1ccc(N)cc1` gave a Ki [2] of 5.52 nM and an IC50 [3] of 24.6 nM.

In the case of `CC(C)CN(C[C@@H](O)[C@H](Cc1ccccc1)NC(=O)[C@@H]1CCCN(C)C1)S(=O)(=O)c1ccc(N)cc1`, the selectivity ratio [1] is reported as > 74100, the Ki [2] is reported as 0.3 nM and the IC50 [3] is reported as 1.35 nM. For the same compound, the inhibition at 10 µM [5] was 83% and the CC50 at 24 h [4] was > 100000 nM.

`CC(C)CN(C[C@@H](O)[C@H](Cc1ccccc1)NC(=O)[C@@H]1CCCCN1)S(=O)(=O)c1ccc(C(F)(F)F)cc1` showed a Ki [2] of 4.61 nM and an IC50 [3] of 20.6 nM.

In the case of `CC(C)CN(C[C@@H](O)[C@H](Cc1ccccc1)NC(=O)[C@@H]1CCCCN1)S(=O)(=O)c1ccc(N)cc1`, the selectivity ratio [1] is reported as > 11100, the Ki [2] is reported as 2.03 nM and the IC50 [3] is reported as 9.04 nM. The CC50 at 24 h [4] was > 100000 nM.

For `CC(C)CN(C[C@@H](O)[C@H](Cc1ccccc1)NC(=O)OC[C@H]1CCCNC1)S(=O)(=O)c1ccc(N)cc1`, the selectivity ratio [1] was > 22100, the Ki [2] was 1.01 nM and the IC50 [3] was 4.53 nM. For the same compound, the CC50 at 24 h [4] was > 100000 nM.

In the case of `COc1ccc(S(=O)(=O)N(CC(C)C)C[C@@H](O)[C@H](Cc2ccccc2)NC(=O)[C@@H]2CCCNC2)cc1`, the selectivity ratio [1] is reported as > 769000, the inhibition at 10 µM [13] is reported as 3% and the Ratio Ki [14] is reported as 6. For the same compound, the EC50 [6] was 14800 nM, the EC50 [7] was 500 nM and the EC50 [8] was 49400 nM. For the same compound, the “Ratio IC50” value [15] was 1.8, the Ki [2] was 0.029 nM and the IC50 [3] was 0.13 nM. For the same compound, the EC50 [9] was 11800 nM, the inhibition at 10 µM [5] was 99% and the CC50 at 24 h [4] was > 100000 nM. For the same compound, the EC50 [10] was 26300 nM and the EC50 [12] was 900 nM.

For `CC(C)CN(C[C@@H](O)[C@H](Cc1ccccc1)NC(=O)[C@@H]1CCCNC1)S(=O)(=O)c1ccc(N)cc1`, the selectivity ratio [1] was > 82600, the Ki [2] was 0.27 nM and the IC50 [3] was 1.21 nM. For the same compound, the inhibition at 10 µM [5] was 81% and the CC50 at 24 h [4] was > 100000 nM.

With `CC(C)CN(C[C@@H](O)[C@H](Cc1ccccc1)NC(=O)[C@H]1CCCNC1)S(=O)(=O)c1ccc(N)cc1` the Ki [2] was 40.5 nM and the IC50 [3] was 181 nM.

For `COc1ccc(S(=O)(=O)N(CC(C)C)C[C@@H](O)[C@H](Cc2ccccc2)NC(=O)[C@H]2CCCNC2)cc1`, the Ki [2] was 9.99 nM, the IC50 [3] was 44.6 nM and the inhibition at 10 µM [5] was 93%.

`CC(C)CN(C[C@@H](O)[C@H](Cc1ccccc1)NC(=O)C1CCNCC1)S(=O)(=O)c1ccc(C(F)(F)F)cc1` showed a Ki [2] of 5.93 nM and an IC50 [3] of 26.5 nM.

Compound `CC(C)CN(C[C@@H](O)[C@H](Cc1ccccc1)NC(=O)[C@H]1CCCNC1)S(=O)(=O)c1ccc(C(F)(F)F)cc1` has a Ki [2] of 43.9 nM and an IC50 [3] of 196 nM.

With `CC(C)CN(C[C@@H](O)[C@H](Cc1ccccc1)NC(=O)[C@@H]1CCCNC1)S(=O)(=O)c1ccc(C(F)(F)F)cc1` the selectivity ratio [1] was > 222000, the Ki [2] was 0.1 nM and the IC50 [3] was 0.45 nM. The CC50 at 24 h [4] was > 100000 nM.

In the case of `CC(C)CN(C[C@@H](O)[C@H](Cc1ccccc1)NC(=O)OC[C@H]1CCCNC1)S(=O)(=O)c1ccc(C(F)(F)F)cc1`, the selectivity ratio [1] is reported as > 8580, the Ki [2] is reported as 2.61 nM and the IC50 [3] is reported as 11.7 nM. The CC50 at 24 h [4] was > 100000 nM.

In the case of `COc1ccc(S(=O)(=O)N(CC(C)C)C[C@@H](O)[C@H](Cc2ccccc2)NC(=O)[C@@H]2CCCN(C)C2)cc1`, the selectivity ratio [1] is reported as > 556000, the inhibition at 10 µM [13] is reported as 5% and the Ki [2] is reported as 0.04 nM. For the same compound, the IC50 [3] was 0.18 nM, the inhibition at 10 µM [5] was 98% and the CC50 at 24 h [4] was > 100000 nM.

For `CC(C)CN(C[C@@H](O)[C@H](Cc1ccccc1)NC(=O)OC[C@@H]1CCCNC1)S(=O)(=O)c1ccc(N)cc1`, the selectivity ratio [1] was > 78700, the Ki [2] was 0.28 nM and the IC50 [3] was 1.27 nM. For the same compound, the inhibition at 10 µM [5] was 71% and the CC50 at 24 h [4] was > 100000 nM.

Reference: ChEMBL document CHEMBL4837199, “Design and evaluation of novel piperidine HIV-1 protease inhibitors with potency against DRV-resistant variants” (Eur J Med Chem, 2021)
